According to patent publication US9445594B2, “Molecules having certain pesticidal utilities, intermediates, compositions, and processes, related thereto” (priority 2014, dated 2016):

What was measured:
Assay type in all cases: in vivo
[1] = system: Beet Armyworm (Spodoptera exigua, LAPHEG) ("BAW"); assay: Bioassays on BAW, 128-well diet tray assay; details: 168 h, second instar larvae, 50 μg/cm^2 on artificial diet, 25° C., five to seven days, average of eight wells, read-out: BAW % Control (or Mortality) rating
How it was run: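 One to five second-instar larvae were placed per well on artificial diet surface-treated with 50 μg/cm^2 compound from 90:10 acetone-water, dried before infestation. Trays were held at 25 °C, 14:10 light-dark, for five to seven days. Percent mortality was averaged over eight wells.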

[2] = system: Corn Earworm (Helicoverpa zea, HELIZE) ("CEW"); assay: Bioassays on CEW, 128-well diet tray assay; details: 168 h, second instar larvae, 50 μg/cm^2 on artificial diet, 25° C., five to seven days, average of eight wells, read-out: CEW % Control (or Mortality) rating
Description: Certain molecules disclosed in this document were tested against BAW, CEW, and CL using procedures described in the following examples. In the reporting of the results, the “BAW, CEW, & CL Rating Table” was used (See Table Section).
Bioassays on CEW were conducted using a 128-well diet tray assay. one to five second instar CEW larvae were placed in each well (3 mL) of the diet tray that had been previously filled with 1 mL of artificial diet to which 50 μg/cm^2 of the test compound (dissolved in 50 μL of 90:10 acetone-water mixture) had been applied (to each of eight wells) and then allowed to dry. Trays were covered with a clear self-adhesive cover, and held at 25° C., 14:10 light-dark for five to seven days. Percent mortality was recorded for the larvae in each well; activity in the eight wells was then averaged. The results are indicated in the table entitled “Table ABC: Biological Results” (See Table Section). Bioassays on CL

[3] = system: Yellow Fever Mosquito (Aedes aegypti, AEDSAE) ("YFM"); assay: Bioassays on YFM, 96-well plate larval assay; details: about 1 day-old larvae, from 4000 ppm DMSO master plate diluted, room temperature, scored after 3 days
How it was run: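 Compounds from 4000 ppm DMSO master plates, diluted in 90:10 water:acetone, dispensed into 96-well plates, six replicates. About 1-day-old larvae added in liver-powder water. Wells covered, held 3 days at room temperature, then scored for mortality.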

[4] = system: Cabbage Looper (Trichoplusia ni, TRIPNI) ("CL"); assay: Bioassays on CL, 128-well diet tray assay; details: 168 h, second instar larvae, 50 μg/cm^2 on artificial diet, 25° C., five to seven days, average of eight wells, read-out: CL % Control (or Mortality) rating
How it was run: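 Second-instar larvae (one to five per well) on artificial diet surface-treated with 50 μg/cm^2 compound in 90:10 acetone-water, eight wells per treatment. Held at 25° C., 14:10 light-dark for five to seven days. Percent mortality scored per well and averaged over the eight wells.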

[5] = system: Green Peach Aphid (Myzus persicae, MYZUPE) ("GPA"); assay: Bioassays on GPA, foliar spray of infested cabbage seedlings; details: 72 h, 200 ppm spray on cabbage seedlings, graded after three days, Abbott corrected % control, read-out: GPA % Control (or Mortality) rating
Description: Certain molecules disclosed in this document were tested against GPA using procedures described in the following example. In the reporting of the results, the “GPA Rating Table” was used (See Table Section).
Cabbage seedlings grown in 3-inch pots, with 2-3 small (3-5 cm) true leaves, were used as test substrate. The seedlings were infested with 20-50 GPA (wingless adult and nymph stages) one day prior to chemical application. Four pots with individual seedlings were used for each treatment. Test compounds (2 mg) were dissolved in 2 mL of acetone/methanol (1:1) solvent, forming stock solutions of 1000 ppm test compound. The stock solutions were diluted 5× with 0.025% Tween 20 in water to obtain the solution at 200 ppm test compound. A hand-held aspirator-type sprayer was used for spraying a solution to both sides of […] leaves until runoff. Reference plants (solvent check) were sprayed with the diluent only containing 20% by volume of acetone/methanol (1:1) solvent. Treated plants were held in a holding room for three days at approximately 25° C. and ambient relative humidity (RH) prior to grading. Evaluation was conducted by counting the number of live aphids per plant under a microscope. Percent Control was measured by using Abbott's correction formula (W. S. Abbott, “A Method of Computing the Effectiveness of an Insecticide” J. Econ. Entomol. 18 (1925), pp. 265-267) as follows. Corrected % Control=100*(X−Y)/X • where • X=No. of live aphids on solvent check plants and • Y=No. of live aphids on treated plants

| SMILES | mortality at 50 µg/cm2 [1] [%] | mortality at 50 µg/cm2 [2] [%] | YFM % Control (or Mortality) rating [3] | mortality at 50 µg/cm2 [4] [%] | mortality at 200 ppm [5] [%] |
| --- | --- | --- | --- | --- | --- |
| CSc1ccc(NC(=S)Nc2ccc(-c3ncn(-c4ccc(OC(F)(F)F)cc4)n3)cc2)cn1 [F27, 1-(6-(Methylthio)pyridin-3-yl)-3-(4-(1-(4-(trifluoromethoxy)phenyl)-1H-1,2,4-triazol-3-yl)phenyl)thiourea] | 0 | 0 | – | – | – |
| O=C(Nc1ccc(F)cc1)Nc1ccc(-c2ncn(-c3ccc(OC(F)(F)F)cc3)n2)cc1 [F17, 1-(4-fluorophenyl)-3-(4-(1-(4-(trifluoromethoxy)phenyl)-1H-1,2,4-triazol-3-yl)phenyl)urea] | 0 | 0 | D (No activity noticed in this bioassay) | – | – |
| N#Cc1ccc(NC(=S)Nc2ccc(-c3ncn(-c4ccc(OC(F)(F)F)cc4)n3)cc2)cc1 [F7, 1-(4-Cyanophenyl)-3-(4-(1-(4-(trifluoromethoxy)phenyl)-1H-1,2,4-triazol-3-yl)phenyl)thiourea] | 0 | 0 | – | – | – |
| COc1ccc(NC(=S)Nc2ccc(-c3ncn(-c4ccc(OC(F)(F)F)cc4)n3)cc2)cc1 [F71, 1-(4-Methoxyphenyl)-3-(4-(1-(4-(trifluoromethoxy)phenyl)-1H-1,2,4-triazol-3-yl)phenyl)thiourea] | 50 to 100 | 50 to 100 | – | – | – |
| COc1ccc(NC(=S)Nc2ccc(-c3ncn(-c4ccc(OC(F)(F)F)cc4)n3)cc2)c(C)c1 [F43, 1-(4-Methoxy-2-methylphenyl)-3-(4-(1-(4-(trifluoromethoxy)phenyl)-1H-1,2,4-triazol-3-yl)phenyl)thiourea] | 50 to 100 | 50 to 100 | – | – | – |
| FC(F)(F)Oc1ccc(-n2cnc(-c3ccc(NC(=S)Nc4cnccc4C(F)(F)F)cc3)n2)cc1 [F12, 1-(4-(1-(4-(trifluoromethoxy)phenyl)-1H-1,2,4-triazol-3-yl)phenyl)-3-(4-(trifluoromethyl)pyridin-3-yl)thiourea] | 0 | 0 | – | – | – |
| CC(C)(C)c1ccccc1NC(=O)Nc1ccc(-c2ncn(-c3ccc(OC(F)(F)F)cc3)n2)cc1 [F38, 1-(2-(Tert-butyl)phenyl)-3-(4-(1-(4-(trifluoromethoxy)phenyl)-1H-1,2,4-triazol-3-yl)phenyl)urea] | 0 to 50 | – | D (No activity noticed in this bioassay) | 50 to 100 | 0 |
| Cc1ccccc1-c1cccc(NC(=O)NCCCc2ccc(-c3ncn(-c4ccc(OC(F)(F)F)cc4)n3)cc2)c1 [FA2, 1-(2′-Methyl-[1,1′-biphenyl]-3-yl)-3-(3-(4-(1-(4-(trifluoromethoxy)phenyl)-1H-1,2,4-triazol-3-yl)phenyl)propyl)urea] | 0 | – | D (No activity noticed in this bioassay) | 0 | 0 |
| Cc1ccc(C(C)C)c(NC(=O)NCCCc2ccc(-c3ncn(-c4ccc(OC(F)(F)F)cc4)n3)cc2)c1 [P6, 1-(2-Isopropyl-5-methylphenyl)-3-(3-(4-(1-(4-(trifluoromethoxy)phenyl)-1H-1,2,4-triazol-3-yl)phenyl)propyl)urea] | 50 to 100 | – | A (80-100) | 50 to 100 | 0 |
| CC(C)c1ccccc1NC(=S)Nc1ccc(-c2ncn(-c3ccc(OC(F)(F)F)cc3)n2)cc1 [F3, 1-(2-isopropylphenyl)-3-(4-(1-(4-(trifluoromethoxy)phenyl)-1H-1,2,4-triazol-3-yl)phenyl)thiourea] | 50 to 100 | 50 to 100 | – | – | – |
| Cc1cc(C)cc(NC(=O)NCCCc2ccc(-c3ncn(-c4ccc(OC(F)(F)F)cc4)n3)cc2)c1 [P1, 1-(3,5-Dimethylphenyl)-3-(3-(4-(1-(4-(trifluoromethoxy)phenyl)-1H-1,2,4-triazol-3-yl)phenyl)propyl)urea] | 0 | – | D (No activity noticed in this bioassay) | 0 | 0 |
| FC(F)(F)Oc1ccc(-n2cnc(-c3ccc(NC(=S)Nc4ccc5ccccc5c4)cc3)n2)cc1 [F25, 1-(Naphthalen-2-yl)-3-(4-(1-(4-(trifluoromethoxy)phenyl)-1H-1,2,4-triazol-3-yl)phenyl)thiourea] | 50 to 100 | 50 to 100 | – | – | – |
| CCc1ccccc1-c1cccnc1NC(=S)Nc1ccc(-c2ncn(-c3ccc(OC(F)(F)F)cc3)n2)cc1 [F20, 1-(3-(2-Ethylphenyl)pyridin-2-yl)-3-(4-(1-(4-(trifluoromethoxy)phenyl)-1H-1,2,4-triazol-3-yl)phenyl)thiourea] | 0 to 50 | – | D (No activity noticed in this bioassay) | 50 to 100 | 0 to 80 |
| CCOc1ccc(NC(=S)Nc2ccc(-c3ncn(-c4ccc(OC(F)(F)F)cc4)n3)cc2)cn1 [F14, 1-(6-Ethoxypyridin-3-yl)-3-(4-(1-(4-(trifluoromethoxy)phenyl)-1H-1,2,4-triazol-3-yl)phenyl)thiourea] | 0 | 0 | – | – | – |
| O=C(NCCCc1ccc(-c2ncn(-c3ccc(OC(F)(F)F)cc3)n2)cc1)Nc1cccc(-c2ccccc2)c1 [P7, 1-([1,1′-biphenyl]-3-yl)-3-(3-(4-(1-(4-(trifluoromethoxy)phenyl)-1H-1,2,4-triazol-3-yl)phenyl)propyl)urea] | 0 | – | D (No activity noticed in this bioassay) | 0 | 0 |
| O=C(Nc1ccc(-c2ncn(-c3ccc(OC(F)(F)F)cc3)n2)cc1)Nc1ncccc1-c1cccnc1 [F66, 1-([3,3′-Bipyridin]-2-yl)-3-(4-(1-(4-(trifluoromethoxy)phenyl)-1H-1,2,4-triazol-3-yl)phenyl)urea] | 50 to 100 | – | D (No activity noticed in this bioassay) | 50 to 100 | 0 to 80 |
| CCc1ccccc1-c1ccccc1NC(=O)Nc1ccc(-c2ncn(-c3ccc(OC(F)(F)F)cc3)n2)cc1 [F35, 1-(2′-Ethyl-[1,1′-biphenyl]-2-yl)-3-(4-(1-(4-(trifluoromethoxy)phenyl)-1H-1,2,4-triazol-3-yl)phenyl)urea] | 50 to 100 | – | A (80-100) | 50 to 100 | 0 |
| O=C(Nc1ccc(-c2ncn(-c3ccc(OC(F)(F)F)cc3)n2)cc1)Nc1ccccc1N1CCOCC1 [F69, 1-(2-Morpholinophenyl)-3-(4-(1-(4-(trifluoromethoxy)phenyl)-1H-1,2,4-triazol-3-yl)phenyl)urea] | 50 to 100 | – | A (80-100) | 50 to 100 | 0 |
| CSc1ccccc1-c1ccccc1NC(=O)Nc1ccc(-c2ncn(-c3ccc(OC(F)(F)F)cc3)n2)cc1 [F60, 1-(2′-(Methylthio)-[1,1′-biphenyl]-2-yl)-3-(4-(1-(4-(trifluoromethoxy)phenyl)-1H-1,2,4-triazol-3-yl)phenyl)urea] | 50 to 100 | – | A (80-100) | 50 to 100 | 0 to 80 |
